The values that follow come from US20120202787A1, “Novel Heteroaryl Imidazoles And Heteroaryl Triazoles As Gamma-Secretase Modulators” (Pfizer Inc., priority 2009, published 2012).

The structures appear in SMILES notation. Like-named read-outs stand apart in the source and are kept apart here.

This assay has as its system γ-secretase (production of amyloid beta protein Aβ (1-42)). Kind of assay: Cell-based γ-secretase assay with ELISA readout (Aβ (1-42) production). Also on record: species or system human WT-APP overexpressing CHO cells. The procedure: Cell-Based γ-Secretase Assay with ELISA Readout
The ability of compounds to modulate production of amyloid beta protein Aβ (1-42) was determined using human WT-APP overexpressing CHO cells. Cells were plated at 22,000 cells/100 μL well in 96 well tissue culture treated, clear plates (Falcon) in DMEM/F12 based medium and incubated for 24 hours at 37° C. Compounds for testing were diluted in 100% DMSO to achieve an eleven points, half log, dose response for IC50 determinations. Compounds were added in fresh medium to achieve 1% final DMSO. Appropriate vehicle and inhibitor controls were added to obtain maximum and minimum inhibition values for the assay before the plates were incubated for about 24 hours at 37° C.
Coating of ELISA assay plates was initiated by addition of 50 μL/well of an in-house Aβ (1-42) specific antibody at (4 μg/mL) in 0.1 M NaHCO3 (pH 9.0) into black 384-well Maxisorp® plates (Nunc) and incubated overnight at 4° C. The capture antibody was then aspirated from the ELISA assay plates and 100 μL/well of Blocking Buffer (Dulbecco's PBS, 1.5% BSA (Sigma A7030)) added. Ambient temperature incubation was allowed to proceed for a minimum of two hours before washing 2×100 μL with Wash Buffer (Dulbecco's PBS, 0.05% Tween 20). Assay Buffer (Dulbecco's PBS, 1.0% BSA (Sigma A7030), 0.05% Tween 20) 20 μL/well was then added.
After incubation overnight at 37° C., 5% CO2, 40 μL (in duplicate) of experimental conditioned media were transferred into wells of the blocked ELISA plates containing the capture antibody, followed by overnight incubation at 4° C. Cell toxicity was measured in the corresponding cells after removal of the media for the Aβ (1-42) assay by a colorimetric cell proliferation assay (CellTiter 96® AQueous One Solution Cell Proliferation Assay, Promega) according to the manufacturer's instructions.
After overnight incubation of the ELISA assay plates at 4° C., unbound Aβ peptides were removed thorough (4×100 μL) washes with Wash Buffer. Europium (Eu) labeled (custom labeled, Perkin Elmer) Aβ (1-16) 6e10 Monoclonal Antibody (Covance #SIG-39320 was added, (50 μL /well Eu-6e10 @ 1:5000, 20 uM EDTA) in Assay Buffer. Incubation at ambient temperature for a minimum of 2 hours was followed by (4×100 μL) washes with Wash Buffer, before 50 μL/well of Delfia Enhancement Solution (Perkin Elmer) was added. Following a one hour ambient temperature incubation, the plates were read on an EnVision plate reader (Perkin Elmer) using standard DELFIA TRF settings. Data analysis including inhibitory IC50 determination was performed using nonlinear regression fit analysis (in-house software) and the appropriate plate mean values for the maximum and minimum inhibition controls.
In general terms: ELISA stands for enzyme-linked immunosorbent assay.

Where [1] appears, read: human WT-APP overexpressing CHO cells, Aβ (1-42) ELISA, about 24 hours at 37° C., free base or salt, read-out: Aβ 42B IC50 (μM) (Geometric Mean of 2-8 Determinations).
Where [2] appears, read: Geometric mean of at least 2 determinations, Table 3, read-out: Aβ 42 IC50 (μM)*.

For orientation: IC50 means the concentration needed to halve the response being measured. Turning to `COc1nc(C(=O)N2CC[C@H](Oc3ccccc3C(F)(F)F)C2)ccc1-n1cnc(C)c1` [Example 36, 2-methoxy-3-(4-methyl-1H-imidazol-1-yl)-6-({(3S)-3-[2-(trifluoromethyl)-phenoxy]pyrrolidin-1-yl}carbonyl)pyridine], the IC50 under setting [1] turned out to be 0.207 µM.
On the same count and under the same terms, as for `COc1cc(C(=O)NCC2(c3ccc(F)cc3)CC2)cnc1-n1cnc(C)c1` [Example 45, N-{[1-(4-fluorophenyl)-cyclopropyl]methyl}-5-methoxy-6-(4-methyl-1H-imidazol-1-yl)nicotinamide], the figure is 2.23 µM; as for `COc1nc(C(=O)NCC(C)(C)c2ccc(F)cc2)ccc1-n1cnc(C)c1` [Example 29, N-[2-(4-fluorophenyl)-2-methylpropyl]-6-methoxy-5-(4-methyl-1H-imidazol-1-yl)pyridine-2-carboxamide], 0.502 µM; as for `COc1cc(C(=O)N2CC[C@H](Oc3ccccc3C(F)(F)F)C2)cnc1-n1cnc(C)c1` [Example 47, 3-methoxy-2-(4-methyl-1H-imidazol-1-yl)-5-({(3S)-3-[2-(trifluoromethyl)-phenoxy]pyrrolidin-1-yl}carbonyl)pyridine], 3.44 µM.
Consider `COc1nc(C(=O)NC(C)(C)c2ccc(F)cc2)ccc1-n1cnc(C)c1` [Example 32, N-[1-(4-fluorophenyl)-1-methylethyl]-6-methoxy-5-(4-methyl-1H-imidazol-1-yl)pyridine-2-carboxamide], for which, under setting [1], the half-inhibitory concentration (IC50) is 2.01 µM.
Take `COc1nc(C(=O)NCc2cccc(C(F)(F)F)c2)cnc1-n1cnc(C)c1` [Example 4, 6-Methoxy-5-(4-methyl-1H-imidazol-1-yl)-N-[3-(trifluoromethyl)benzyl]pyrazine-2-carboxamide]: under setting [1], the IC50 stood at 1.75 µM.
Still for that read-out and setting: as for `Cc1cn(-c2ccc(C(=O)NCC3(c4cccc(C(F)(F)F)c4)CCOCC3)cn2)cn1` [Example 1, 6-(4-Methyl-1H-imidazol-1-yl)-N-({4-[3-(trifluoromethyl)phenyl]tetrahydro-2H-pyran-4-yl}methyl)nicotinamide], the figure is 13.6 µM; as for `COc1nc(C(=O)NCC2(c3cccc(C)c3)CCC2)ccc1-n1cnc(C)c1` [Example 27, 6-methoxy-5-(4-methyl-1H-imidazol-1-yl)-N-{[1-(3-methylphenyl)cyclobutyl]-methyl}pyridine-2-carboxamide], 0.438 µM; as for `COc1nc(C(=O)NCC2CCCC2)ccc1-n1cnc(C)c1` [Example 33, N-(cyclopentylmethyl)-6-methoxy-5-(4-methyl-1H-imidazol-1-yl)pyridine-2-carboxamide], 0.726 µM.
Same read-out and setting: to `COc1nc(C(=O)NCC(C)(C)c2ccc(F)cc2)cnc1-n1cnc(C)c1` [Example 13, N-[2-(4-fluorophenyl)-2-methylpropyl]-6-methoxy-5-(4-methyl-1H-imidazol-1-yl)pyrazine-2-carboxamide] belongs 1.36 µM.
Still for that read-out and setting: to `COc1nc(C(=O)NCc2cccc(Cl)c2C)ccc1-n1cnc(C)c1` [Example 41, N-(3-chloro-2-methylbenzyl)-6-methoxy-5-(4-methyl-1H-imidazol-1-yl)pyridine-2-carboxamide] belongs 0.332 µM.
As for `COc1nc(C(=O)NCc2ccc(Cl)cc2Cl)ccc1-n1cnc(C)c1` [Example 44, N-(2,4-dichlorobenzyl)-6-methoxy-5-(4-methyl-1H-imidazol-1-yl)pyridine-2-carboxamide], the IC50 under setting [1] is 0.394 µM.
Take `COc1nc(C(=O)NCC2(c3ccc(F)cc3)CCC2)ccc1-n1cnc(C)c1` [Example 28, N-{[1-(4-fluorophenyl)-cyclobutyl]methyl}-6-methoxy-5-(4-methyl-1H-imidazol-1-yl)pyridine-2-carboxamide]: the IC50 under setting [1] came out at 0.314 µM.
Same read-out and setting: to `COc1nc(C(=O)NCC2(c3ccc(Cl)cc3)CC2)ccc1-n1cnc(C)c1` [Example 3, N-{[1-(4-Chlorophenyl)cyclopropyl]methyl}-6-methoxy-5-(4-methyl-1H-imidazol-1-yl)pyridine-2-carboxamide] belongs 0.186 µM; to `COc1nc(C(=O)NCc2cccc(C(F)(F)F)c2)ccc1-n1cnc(C)c1` [Example 30, 6-methoxy-5-(4-methyl-1H-imidazol-1-yl)-N-[3-(trifluoromethyl)benzyl]-pyridine-2-carboxamide], 0.502 µM.
For the molecule `COc1nc(C(=O)NC2COc3cc(F)c(Cl)cc32)ccc1-n1cnc(C)c1` (stereo not shown) [Example 55, N-[5-chloro-6-fluoro-2,3-dihydro-1-benzofuran-3-yl]-6-methoxy-5-(4-methyl-1H-imidazol-1-yl)pyridine-2-carboxamide], under setting [2], the concentration for half-maximal inhibition (IC50) is 0.423 µM.
Consider `COc1nc(C(=O)NC(C)(C)c2ccc(F)cc2)cnc1-n1cnc(C)c1` [Example 17, N-[1-(4-fluorophenyl)-1-methylethyl]-6-methoxy-5-(4-methyl-1H-imidazol-1-yl)pyrazine-2-carboxamide], for which the half-maximal inhibitory concentration (IC50) under setting [1] was found to be 2.41 µM.
On the same count and under the same terms, as for `COc1cc(C(=O)NCCc2c(C)[nH]c3c(Cl)cc(Cl)cc23)ncc1-n1cnc(C)c1` [Example 21, N-[2-(5,7-dichloro-2-methyl-1H-indol-3-yl)ethyl]-4-methoxy-5-(4-methyl-1H-imidazol-1-yl)pyridine-2-carboxamide], the figure is 6.25 µM; as for `COc1nc(C(=O)NCC2CCCC2)cnc1-n1cnc(C)c1` [Example 19, N-(cyclopentylmethyl)-6-methoxy-5-(4-methyl-1H-imidazol-1-yl)pyrazine-2-carboxamide], 5.77 µM; as for `COc1nc(C(=O)NCC2(c3ccc(F)cc3)CC2)cnc1-n1cnc(C)c1` [Example 6, N-{[1-(4-Fluorophenyl)cyclopropyl]methyl}-6-methoxy-5-(4-methyl-1H-imidazol-1-yl)pyrazine-2-carboxamide], 1.3 µM.
Consider `COc1nc(C(=O)NC2COc3ccc(Cl)c(C)c32)ccc1-n1cnc(C)c1` (stereo not shown) [Example 51, N-(5-chloro-4-methyl-2,3-dihydro-1-benzofuran-3-yl)-6-methoxy-5-(4-methyl-1H-imidazol-1-yl)pyridine-2-carboxamide], for which the half-maximal inhibitory concentration (IC50) under setting [2] is 0.234 µM.
Consider `COc1cc(C(=O)NCc2sc3c(F)ccc(F)c3c2Cl)ncc1-n1cnc(C)c1` [Example 22, N-[(3-chloro-4,7-difluoro-1-benzothien-2-yl)methyl]-4-methoxy-5-(4-methyl-1H-imidazol-1-yl)pyridine-2-carboxamide], for which, under setting [1], the half-inhibitory concentration (IC50) was over 15.8 µM.
Consider `COc1nc(C(=O)NC2COc3ccc(Cl)c(F)c32)ccc1-n1cnc(C)c1` (stereo not shown) [Example 49, N-[5-chloro-4-fluoro-2,3-dihydro-1-benzofuran-3-yl]-6-methoxy-5-(4-methyl-1H-imidazol-1-yl)pyridine-2-carboxamide], for which the concentration for half-maximal inhibition (IC50) under setting [2] turned out to be 0.194 µM.
On to `COc1nc(C(=O)NCc2cc(Cl)cc(Cl)c2)ccc1-n1cnc(C)c1` [Example 43, N-(3,5-dichlorobenzyl)-6-methoxy-5-(4-methyl-1H-imidazol-1-yl)pyridine-2-carboxamide], for which, under setting [1], the half-inhibitory concentration (IC50) was 0.216 µM.
Regarding `COc1nc(C(=O)NC(C)(C)c2cccc(Cl)c2)cnc1-n1cnc(C)c1` [Example 15, N-[1-(3-chlorophenyl)-1-methylethyl]-6-methoxy-5-(4-methyl-1H-imidazol-1-yl)pyrazine-2-carboxamide], the 50% inhibitory concentration (IC50) under setting [1] came out at 1.82 µM.
Turning to `COc1cc(C(=O)NCC2(c3ccc(C(F)(F)F)cc3)CCOCC2)ncc1-n1cnc(C)c1` [Example 23, 4-methoxy-5-(4-methyl-1H-imidazol-1-yl)-N-({4-[4-(trifluoromethyl)phenyl]-tetrahydro-2H-pyran-4-yl}methyl)pyridine-2-carboxamide], the IC50 under setting [1] was 17.2 µM.
For the molecule `COc1nc(C(=O)NCC2(c3ccccc3)CCCC2)cnc1-n1cnc(C)c1` [Example 2, 6-Methoxy-5-(4-methyl-1H-imidazol-1-yl)-N-[(1-phenylcyclopentyl)methyl]pyrazine-2-carboxamide], the half-maximal inhibitory concentration (IC50) under setting [1] worked out at 2.29 µM.
Same read-out and setting: to `Cc1cn(-c2ncc(C(=O)NCC3(c4ccc(F)cc4)CC3)cc2Cl)cn1` [Example 35, 5-chloro-N-{[1-(4-fluorophenyl)cyclopropyl]-methyl}-6-(4-methyl-1H-imidazol-1-yl)nicotinamide] belongs 5.77 µM.
